Measurements published in patent US20220372441A1, “MICRORNAS ENRICHED IN MEGAKARYOCYTIC EXTRACELLULAR VESICLES AND USES THEREOF” (University of Delaware, priority 2019, published 2022).

Tests used:
CD34+ HSPCs [1] = assay: Signaling-inhibitor experiments: MkMP-induced Mk differentiation of inhibitor-pretreated CD34+ HSPCs; conditions: for percent of cells CD34−CD41+: day 12, representative quadrant plots (FIG. 11E); for fraction of cells CD34+CD41−: day 7, representative quadrant plots (FIG. 11E)
Description: Signaling-inhibitor experiments: 60,000 CD34^+ HSPCs were pretreated with signaling inhibitors for 30 min, followed by co-culture with MkMPs (30 MPs per cell) in IMDM supplemented with 10% BIT 9500 and 50 ng/mL SCF. Inhibitors were replenished at days 3 and 7. At day 4, 7 and 12, cells were harvested for flow cytometric analysis of CD41, CD42b, and CD34 expression. Total-cell and Mk counts were measured at day 7.
To further investigate the effects of MkMPs in promoting megakaryocytic differentiation of CD34^+ HSPCs, and how this might relate to the miR content of MkMPs, we next probed likely signaling pathways using kinase inhibitors. […] Briefly, CD34^+ HSPCs were pretreated with kinase inhibitors of chosen signaling pathways (JNK, p38, MEK, PI3K, Akt and mTOR inhibitors, Table 6) for 30 min before they were co-cultured with MkMPs at the ratio of 10 MkMPs/cell. Inhibitors were replenished at days 3 and 7. CD41, CD42b and CD34 expression, and cell numbers were measured at days 4, 7, and 12.

PTEN [2] = assay: PTEN mRNA level by qRT-PCR in CD34+ HSPCs; assay type: cell-based, human; conditions: JNK inhibitor pretreatment, MkMP co-culture 24 hours (FIG. 13B)
Description: Quantitative reverse transcription PCR (qRT-PCR): CD34^+ HSPCs pretreated with JNK inhibitor or solution without an inhibitor were co-cultured with MkMPs, non-targeting miR-loaded MkMPs, miR-486-5p inhibitor-loaded MkMPs at 30 MPs per cell, or vehicle control. At 24 hr, cells were harvested and total RNA was isolated, reversed transcribed for qPCR assay as described by Kao and Papoutsakis (Sci Adv. 2018; 4:eaau6762). qPCR assays for PTEN and GAPDH were performed with PerfeCTa SYBR Green Supermix (QuantaBio) and the following primers: Forward (5′-[…]-3′) (SEQ ID NO: 1), Reverse (5′-[…]-3′) (SEQ ID NO: 2) for PTEN, and Forward (5′-[…]-3′) (SEQ ID NO: 3), Reverse (5′-[…]-3′) (SEQ ID NO: 4) for GAPDH. PTEN mRNA level were quantified by normalized to GAPDH mRNA level as the reference gene.
Phosphatase and TENsin homolog (PTEN) is a negative regulator of PI3K/Akt signaling in HSC development. Loss of PTEN results in enhanced cellular proliferation and megakaryopoiesis due to overactive of PI3K/Akt signaling. We hypothesized that activation of PI3K/Akt/mTOR signaling by MkMPs might be PTEN mediated. We thus examined the mRNA level of PTEN by quantitative PCR, and PTEN protein level by flow cytometry and immunoblotting. The impact on PTEN mRNA levels appears higher than that on protein levels. […]

PTEN [3] = assay: PTEN protein expression by flow cytometry in CD34+ HSPCs; assay type: cell-based, human; conditions: JNK inhibitor pretreatment, MkMP co-culture 24 hours (FIG. 13A)
Description: Cells were fixed in 4% paraformaldehyde for 15 min at room temperature, followed by the permeabilization in 90% methanol for 30 min at 4° C. After washing in PBS, cells were stained with Alexa 647-conjugated anti-mTOR (#5048S), PE-conjugated anti-Akt (#8790S), or Alexa 488-conjugated anti-p-Akt (#4071S) antibodies from Cell Signaling, or Alexa 647-conjugated anti-p-mTOR (#564242) from BD bioscience, for 1 hour at room temperature, followed by flow-cytometric analysis.
Phosphatase and TENsin homolog (PTEN) is a negative regulator of PI3K/Akt signaling in HSC development. Loss of PTEN results in enhanced cellular proliferation and megakaryopoiesis due to overactive of PI3K/Akt signaling. We hypothesized that activation of PI3K/Akt/mTOR signaling by MkMPs might be PTEN mediated. We thus examined the mRNA level of PTEN by quantitative PCR, and PTEN protein level by flow cytometry and immunoblotting. The impact on PTEN mRNA levels appears higher than that on protein levels. Compared to the vehicle control, PTEN protein or mRNA levels were around 10% or 30% lower, respectively, in HSPCs co-cultured with MkMPs (FIGS. 13A and 13B). […] These statistically-significant but relatively low-impact effects on PTEN protein expression would be expected given that the measurements were done within the first 24 hours of the co-culture, rather than late in the co-culture.

CD34+ HSPCs [4] = assay: Transfection of CD34+ HSPCs with miR mimics, culture without TPO; flow cytometry of CD41/CD42b, Mk and total cell counts; assay type: cell-based, human
Description: Transfection of CD34^+ HSPCs with miR mimics: 200,000 CD34^+ cells were freshly thawed and cultured in IMDM supplemented with 20% BIT 9500, and 100 ng/mL SCF. After 3 hours, cells were transfected with 8 μM of miR mimics, non-targeting miR (miR-NC), or without miR (No miR) using the Amaxa Nucleofector II with program U-08. […] Cells cultured in TPO-supplemented medium (100 ng/ml TPO), or co-cultured with MkMPs served as positive controls (TPO, MkMP). The medium was replaced one day after transfection. […] At day 13, cells were harvested for serotonin (5-HT), von willebrand factor (vWF), beta 1 tubulin (TUBB1), and DAPI staining, as described^7. The images were taken by ZEISS LSM 880 multiphoton confocal microscope. At day 16, cells were harvested for ploidy analysis by flow-cytometric analysis as described by Lindsey and Papoutsakis (Br J Haematol. 2011; 152(4):469-484).
To determine if there is a dose effect of miR mimics on Mk differentiation of HSPCs, using CD41 expression as the key early Mk-differentiation marker, we carried out a pilot study with two donor CD34^+-cell samples. CD34^+ HSPCs were transfected with high (8 μM) or low (2 μM) concentrations of miR-486-5p or miR-22-3p (generally known as miR-22) mimics were and cultured without TPO. […]

[5] = day 7, MkMP co-culture, inhibitor 10 uM (FIG. 11A)

In the case of O=c1cc(N2CCOCC2)oc2c(-c3ccccc3)cccc12 [LY-294002], the “percent of cells CD34−CD41+” value (CD34+ HSPCs [1]) is reported as 16.5%.

With CO[C@H]1C[C@@H]2CC[C@@H](C)[C@@](O)(O2)C(=O)C(=O)N2CCCC[C@H]2C(=O)O[C@H]([C@H](C)C[C@@H]2CC[C@@H](O)[C@H](OC)C2)CC(=O)[C@H](C)/C=C(\C)[C@@H](O)[C@@H](OC)C(=O)[C@H](C)C[C@H](C)/C=C/C=C/C=C/1C [Rapamycin] the CD41 expression (CD34+ HSPCs [1]; [5]) was 32.1%, the “fraction of cells CD34+CD41−” value (CD34+ HSPCs [1]) was 48.3% and the “percent of cells CD34−CD41+” value (CD34+ HSPCs [1]) was 6.0%.

With C[S+]([O-])c1ccc(-c2nc(-c3ccncc3)c(-c3ccc(F)cc3)[nH]2)cc1 (centres unmarked) [SB203580] the “fraction of cells CD34+CD41−” value (CD34+ HSPCs [1]) was 43.4% and the CD41 expression (CD34+ HSPCs [1]; day 12, MkMP co-culture, compared to MkMP control (FIG. 11B)) was “significantly suppressed CD41 expression”.

For Oc1c2ccccc2c2c3c(cccc13)N=N2 [SP600125], the “PTEN mRNA level above vehicle-control level” value (PTEN [2]) was 260%, the CD41 expression (CD34+ HSPCs [1]; [5]) was 32.8% and the “fraction of cells CD34+CD41−” value (CD34+ HSPCs [1]) was 52.1%. The “percent of cells CD34−CD41+” value (CD34+ HSPCs [1]) was 12.6% and the “PTEN protein level above vehicle-control level” value (PTEN [3]) was 17%.

COC[C@H]1OC(=O)c2coc3c2[C@@]1(C)C1=C(C3=O)[C@@H]2CCC(=O)[C@@]2(C)C[C@H]1OC(C)=O [Wortmannin] was tested, and the “percent of cells CD34−CD41+” value (CD34+ HSPCs [1]) was 25.3%.

In the case of “TPO: recombinant human thrombopoietin, 100 ng/ml, positive control”, the “percent of cells expressing CD41” value (CD34+ HSPCs [4]; day 13, electroporated CD34+ cells, miR mimics without TPO, TPO 100 ng/ml or MkMP co-culture as positive controls (FIGS. 7A, 7B)) is reported as 56% and the “percent CD41+CD42b+ double positive cells” value (CD34+ HSPCs [4]; day 13, representative quadrant plots (FIG. 7D)) is reported as 38.9%.
